Broadly, the IC50 is the point on the concentration scale where inhibition reaches its midpoint.

Where two headings read alike, the source gives them in different places.

Series [1] has as its system TNF-alpha synthesis and release from the human macrophage cell line U937. The series is described as follows: Inhibition of TNF-alpha synthesis and release from the human macrophage cell line U937. The class given is cell-based. An excerpt:
Accordingly, the invention also provides a compound of formula I for use as a pharmaceutical. […] Methods (1997) 202:49-57; Renzi et al, Am. Rev. Respir. Dis. (1993) 148:932-939; Tsuyuki et al., J. Clin. Invest. (1995) 96:2924-2931; and Cemadas et al (1999) Am. J. Respir. Cell Mol. Biol. 20:1-8.

Another series concerns lung eosinophilia. In words: Inhibition of lung eosinophilia in ovalbumin-sensitised Brown Norway rats. The format is in vivo. As to conditions: 3 mg/kg intratracheally as dry powder lactose blend, 24 h before ovalbumin aerosol; lung lavage 24 h after challenge. The procedure: In vivo anti-inflammatory activity may be assessed by inhibition of lung eosinophilia in rats using a modification of the method of Szarka et al op cit. Male Brown Norway rats (approximately 200 g) are sensitised on day 1 with an intraperitonial injection of 0.5 ml of a mixture of ovalbumin (0.02 mg/ml) and aluminium hydroxide (20 mg/ml), followed by Acellulare pertussis adsorbat vaccine (0.2 ml of a 1:4 dilution with 0.9% saline). The procedure is repeated on day 15 and day 21. […] The lungs are removed and after lavage with Hank's solution (balanced salt solution, 100 ml; EDTA 100 mM, 100 ml; HPES 1M, 10 ml, water 1000 ml), eosinophil numbers in the recovered solution are quantified directly using a Corbas Helios 5Diff apparatus (Hoffman-LaRoche).

The nature of series [2]: Systemic side effects: reduction in thymus weight on chronic administration to rats. The format is in vivo, Sprague-Dawley rats. As for the experimental part: Systemic side effects may be assessed by reduction in thymus weight on chronic administration to rats. Male Sprague-Dawley rats (approximately 250 g) are treated once daily for 4 days with the test compound administered at a dose of 1 mg/kg either orally as a hydroxypropyl cellulose suspension or intratracheally under isoflurane anaesthesia as a dry powder lactose blend. On day 5 the rats are sacrificed, autopsy is performed and the weight of the thymus is determined.

Where [3] appears, read: Homo sapiens, U-937, read-out: IC50 inhibition of TNF-alpha synthesis and release.

As for `COC(=O)[C@@]1(OC(=O)c2sccc2C)[C@H](C)CC2C3C[C@H](F)C4=CC(=O)C=C[C@]4(C)[C@@]3(Cl)[C@@H](O)C[C@@]21C` (stereo partly drawn) [Example 26, 3-methylthiophene-2-carboxylic acid (6S,9R,10S,11S,13S,16R,17R)-9-chloro-6-fluoro-11-hydroxy-17-methoxycarbonyl-10,13,16-trimethyl-3-oxo-6,7,8,9,10,11,12,13,14,15,16,17-dodecahydro-3H-cyclopenta[a]phenanthren-17-yl ester], the IC50 in series [1] (setting [3]) came out at 0.024 nM. In the series with lung eosinophilia, the “reduction in eosinophil count compared to vehicle control” value (from here on “reduction in eosinophil count”) came to 63%.
In the case of `COC(=O)[C@@]1(OC(=O)C2CC2)[C@@H](C)CC2C3C[C@H](F)C4=CC(=O)C=C[C@]4(C)[C@@]3(Cl)[C@@H](O)C[C@@]21C` (stereo partly drawn) [Example 34, (6S,9R,10S,11S,13S,16S,17R)-9-chloro-17-cyclopropanecarbonyloxy-6-fluoro-11-hydroxy-10,13,16-trimethyl-3-oxo-6,7,8,9,10,11,12,13,14,15,16,17-dodecahydro-3H-cyclopenta[a]phenanthrene-17-carboxylic acid methyl ester], in series [1] (setting [3]), the IC50 was 0.1 nM. Further, the “reduction in eosinophil count” value with lung eosinophilia turned out to be 90%.
Turning to `COC(=O)[C@@]1(OC(=O)c2cnc(C)cn2)[C@H](C)CC2C3C[C@H](F)C4=CC(=O)C=C[C@]4(C)[C@@]3(Cl)[C@@H](O)C[C@@]21C` (some centres unmarked) [Example 99], the “reduction in thymus weight compared to vehicle control when dosed intratracheally” value in series [2] (1 mg/kg intratracheally once daily for 4 days, dry powder lactose blend) came to 70%. Further, the “reduction in thymus weight compared to vehicle control when dosed orally” value in series [2] (1 mg/kg orally once daily for 4 days, hydroxypropyl cellulose suspension) turned out to be 0%. Moreover, in series [1] (U937 human macrophage cell line, read-out: IC50 inhibition of TNF-alpha synthesis and release), the concentration for half-maximal inhibition (IC50) amounted to 0.106 nM. Further, the “reduction in eosinophil count” value in the series with lung eosinophilia is 48%.

(Values after patent US6921757B2, “Organic compounds” (Novartis AG, priority 2000, dated 2005).)
